Values joined by “and” are separate entries in the source; they are usually repeats but may differ in a detail not shown here. Equal values may be shown once.

The subject of assay [1] is dry eye model in CBA/J mice (CBA/J 마우스의 건성안 모델). The class given is in vivo, mouse.
Assay [2] relates to HCE-T (human cornea epithelial cell) (HCE-T(사람 각막 상피 세포)). Put plainly: Hyaluronic acid amount in HCE-T medium by hyaluronan-ELISA. Type of assay: cell-based. Particulars: 1 ml medium containing cytidine, 72 h, 37℃. Also on record: dose or concentration left out as unconfirmed.

Turning to `Nc1ccn([C@@H]2O[C@H](CO)[C@@H](O)[C@H]2O)c(=O)n1` [시티딘], the “tear volume (mean)” value in assay [1] (N 8) was 7.39 and 4.54 and 6.18 and 7.03. Besides, in assay [1] (mouse, in vivo), the “tear volume compared with control group” value was “유의하게 눈물의 양이 증가” and the “tear volume compared with normal group” value is “정상군에 해당하는 눈물량의 분비”. In addition, the “amount of hyaluronic acid (mean)” value in assay [2] was determined as 88.9. In assay [2] (versus control), the “amount of hyaluronic acid compared with control group” value was “히아루론산의 양이 대조군에 비하여 증가하지 않음”.

Source of the values: patent KR20110062313A, “시티딘을 포함하는 약제학적 조성물” (주식회사 머젠스, priority 2009, dated 2011).
